From ChEMBL document CHEMBL3885881, “DrugMatrix”

Species on record: Rattus norvegicus
Assay: DrugMatrix - Regimen: Daily Repeat
Assay type: toxicity, organism-based, Sprague-Dawley
Set-up: regimen Daily Repeat, gender Male, age 6-8 weeks
Conditions: in vivo, po, route oral GAVAGE, vehicle 100 % WATER; for ABSOLUTE BASOPHIL / ABSOLUTE EOSINOPHIL / ABSOLUTE LYMPHOCYTE / ABSOLUTE MONOCYTE / ABSOLUTE SEGMENTED NEUTROPHIL / BASOPHIL / EOSINOPHIL / ERYTHROCYTE COUNT / HEMATOCRIT / HEMOGLOBIN / LEUKOCYTE COUNT / LYMPHOCYTE / MEAN CORPUSCULAR HEMOGLOBIN / MEAN CORPUSCULAR HEMOGLOBIN CONCENTRATION / MEAN CORPUSCULAR VOLUME / MONOCYTE / NEUTROPHIL / NUCLEATED RED BLOOD CELLS / PLATELET COUNT: tissue Blood; for ALANINE AMINOTRANSFERASE / ALBUMIN / ALKALINE PHOSPHATASE / ASPARTATE AMINOTRANSFERASE / BLOOD UREA NITROGEN / CARBON DIOXIDE / CHLORIDE / CHOLESTEROL / CREATINE PHOSPHOKINASE / CREATININE / GLUCOSE / LACTATE DEHYDROGENASE / LIPASE / PHOSPHORUS / POTASSIUM / SODIUM / TOTAL BILIRUBIN / TOTAL PROTEIN / URIC ACID: tissue Plasma
[1] = 0 mg/kg, 72 h, dose level Control, time 3 day
[2] = 0 mg/kg, 120 h, dose level Control, time 5 day
[3] = 14 mg/kg, 72 h, dose level Low, time 3 day

C[C@H]1c2cccc(O)c2C(=O)C2=C(O)[C@]3(O)C(=O)C(C(N)=O)=C(O)[C@@H](N(C)C)[C@@H]3[C@@H](O)[C@@H]21.O [DOXYCYCLINE]
ABSOLUTE BASOPHIL [1]: 0 CELLS/uL | ABSOLUTE EOSINOPHIL [1]: 86.33 CELLS/uL | ABSOLUTE LYMPHOCYTE [1]: 12090.17 CELLS/uL | ABSOLUTE MONOCYTE [1]: 166.67 CELLS/uL | ABSOLUTE SEGMENTED NEUTROPHIL [1]: 1090.17 CELLS/uL | BASOPHIL [1]: 0% | EOSINOPHIL [1]: 0.67% | ERYTHROCYTE COUNT [1]: 5.57 x10E6/uL | HEMATOCRIT [1]: 35.33% | HEMOGLOBIN [1]: 13.83 G/DL | LEUKOCYTE COUNT [1]: 13.43 x10E3/uL | LYMPHOCYTE [1]: 89.83% | MEAN CORPUSCULAR HEMOGLOBIN [1]: 24.88 pg | MEAN CORPUSCULAR HEMOGLOBIN CONCENTRATION [1]: 39.15 G/DL | MEAN CORPUSCULAR VOLUME [1]: 63.52 fL | MONOCYTE [1]: 1.17% | NEUTROPHIL [1]: 8.33% | NUCLEATED RED BLOOD CELLS [1]: 0 /100WBC | PLATELET COUNT [1]: 1181.33 x10E3/uL | ALANINE AMINOTRANSFERASE [1]: 48.33 u/L | ALBUMIN [1]: 4.1 G/DL | ALKALINE PHOSPHATASE [1]: 395 u/L | ASPARTATE AMINOTRANSFERASE [1]: 81.83 u/L | BLOOD UREA NITROGEN [1]: 15.83 mg/dL | CARBON DIOXIDE [1]: 24.17 mmol/L | CHLORIDE [1]: 103.83 MEQ/L | CHOLESTEROL [1]: 63.67 mg/dL | CREATINE PHOSPHOKINASE [1]: 372.83 u/L | CREATININE [1]: 0.18 mg/dL | GLUCOSE [1]: 173.83 mg/dL | LACTATE DEHYDROGENASE [1]: 188.33 u/L | LIPASE [1]: 9.5 u/L | PHOSPHORUS [1]: 11.95 mg/dL | POTASSIUM [1]: 5.99 MEQ/L | SODIUM [1]: 144.43 MEQ/L | TOTAL BILIRUBIN [1]: 0.15 mg/dL | TOTAL PROTEIN [1]: 5.95 G/DL | URIC ACID [1]: 1.82 mg/dL | ABSOLUTE BASOPHIL [2]: 0 CELLS/uL | ABSOLUTE EOSINOPHIL [2]: 26.67 CELLS/uL | ABSOLUTE LYMPHOCYTE [2]: 7583.83 CELLS/uL | ABSOLUTE MONOCYTE [2]: 131.33 CELLS/uL | ABSOLUTE SEGMENTED NEUTROPHIL [2]: 674.83 CELLS/uL | BASOPHIL [2]: 0% | EOSINOPHIL [2]: 0.33% | ERYTHROCYTE COUNT [2]: 5.78 x10E6/uL | HEMATOCRIT [2]: 36.48% | HEMOGLOBIN [2]: 14.03 G/DL | LEUKOCYTE COUNT [2]: 8.42 x10E3/uL | LYMPHOCYTE [2]: 89.83% | MEAN CORPUSCULAR HEMOGLOBIN [2]: 24.3 pg | MEAN CORPUSCULAR HEMOGLOBIN CONCENTRATION [2]: 38.52 G/DL | MEAN CORPUSCULAR VOLUME [2]: 63.15 fL | MONOCYTE [2]: 1.67% | NEUTROPHIL [2]: 8.17% | NUCLEATED RED BLOOD CELLS [2]: 0 /100WBC | PLATELET COUNT [2]: 1186.67 x10E3/uL | ALANINE AMINOTRANSFERASE [2]: 50.17 u/L | ALBUMIN [2]: 4.07 G/DL | ALKALINE PHOSPHATASE [2]: 367.5 u/L | ASPARTATE AMINOTRANSFERASE [2]: 81.67 u/L | BLOOD UREA NITROGEN [2]: 16.17 mg/dL | CARBON DIOXIDE [2]: 32.33 mmol/L | CHLORIDE [2]: 101.5 MEQ/L | CHOLESTEROL [2]: 65.33 mg/dL | CREATINE PHOSPHOKINASE [2]: 255.33 u/L | CREATININE [2]: 0.17 mg/dL | GLUCOSE [2]: 139.33 mg/dL | LACTATE DEHYDROGENASE [2]: 95 u/L | LIPASE [2]: 10.5 u/L | PHOSPHORUS [2]: 10.38 mg/dL | POTASSIUM [2]: 6.11 MEQ/L | SODIUM [2]: 145.55 MEQ/L | TOTAL BILIRUBIN [2]: 0.17 mg/dL | TOTAL PROTEIN [2]: 5.98 G/DL | URIC ACID [2]: 0.93 mg/dL | ABSOLUTE BASOPHIL [3]: 0 CELLS/uL | ABSOLUTE EOSINOPHIL [3]: 116.33 CELLS/uL | ABSOLUTE LYMPHOCYTE [3]: 13980 CELLS/uL | ABSOLUTE MONOCYTE [3]: 147.67 CELLS/uL | ABSOLUTE SEGMENTED NEUTROPHIL [3]: 1122.67 CELLS/uL | BASOPHIL [3]: 0% | EOSINOPHIL [3]: 0.67% | ERYTHROCYTE COUNT [3]: 5.35 x10E6/uL | HEMATOCRIT [3]: 33.67% | HEMOGLOBIN [3]: 13.37 G/DL | LEUKOCYTE COUNT [3]: 15.37 x10E3/uL | LYMPHOCYTE [3]: 90.33% | MEAN CORPUSCULAR HEMOGLOBIN [3]: 25 pg | MEAN CORPUSCULAR HEMOGLOBIN CONCENTRATION [3]: 39.73 G/DL | MEAN CORPUSCULAR VOLUME [3]: 62.97 fL | MONOCYTE [3]: 1% | NEUTROPHIL [3]: 8% | NUCLEATED RED BLOOD CELLS [3]: 0 /100WBC | PLATELET COUNT [3]: 1183 x10E3/uL | ALANINE AMINOTRANSFERASE [3]: 54 u/L | ALBUMIN [3]: 3.97 G/DL | ALKALINE PHOSPHATASE [3]: 325.67 u/L | ASPARTATE AMINOTRANSFERASE [3]: 90 u/L | BLOOD UREA NITROGEN [3]: 18 mg/dL | CARBON DIOXIDE [3]: 24.33 mmol/L | CHLORIDE [3]: 103.67 MEQ/L | CHOLESTEROL [3]: 61.33 mg/dL | CREATINE PHOSPHOKINASE [3]: 372 u/L | CREATININE [3]: 0.12 mg/dL | GLUCOSE [3]: 163.33 mg/dL | LACTATE DEHYDROGENASE [3]: 339 u/L | LIPASE [3]: 8.67 u/L | PHOSPHORUS [3]: 11.87 mg/dL | POTASSIUM [3]: 5.76 MEQ/L | SODIUM [3]: 143.73 MEQ/L | TOTAL BILIRUBIN [3]: 0.2 mg/dL | TOTAL PROTEIN [3]: 5.77 G/DL | URIC ACID [3]: 1.13 mg/dL
